Assay results as given in PubChem BioAssay (NCI).
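Briefly, cells in 96-well plates were exposed to five compound concentrations for 48 h, and endpoints were estimated by linear interpolation. TGI: total growth inhibition.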

Key:
Experiment in all cases: growth of human tumour cells (NCI), 48 h
OVCAR-5 ovarian = system: OVCAR-5 ovarian
CAKI-1 renal = system: CAKI-1 renal
NCI-H226 lung = system: NCI-H226 lung
TK-10 renal = system: TK-10 renal
SF-295 CNS = system: SF-295 CNS
M14 melanoma = system: M14 melanoma
COLO 205 colon = system: COLO 205 colon
HOP-92 NSCLC = system: HOP-92 NSCLC
UACC-62 melanoma = system: UACC-62 melanoma
EKVX NSCLC = system: EKVX NSCLC
HL-60(TB) leukemia = system: HL-60(TB) leukemia
RPMI-8226 leukemia = system: RPMI-8226 leukemia
IGROV1 ovarian = system: IGROV1 ovarian
NCI-H23 lung = system: NCI-H23 lung
HOP-62 NSCLC = system: HOP-62 NSCLC
K-562 leukemia = system: K-562 leukemia
SNB-19 CNS = system: SNB-19 CNS
SF-268 CNS = system: SF-268 CNS
UACC-257 melanoma = system: UACC-257 melanoma
SK-MEL-5 melanoma = system: SK-MEL-5 melanoma

Row | SMILES | TGI (OVCAR-5 ovarian) [µM] | TGI (CAKI-1 renal) [µM] | TGI (NCI-H226 lung) [µM] | TGI (TK-10 renal) [µM] | TGI (SF-295 CNS) [µM] | TGI (M14 melanoma) [µM] | TGI (COLO 205 colon) [µM] | TGI (HOP-92 NSCLC) [µM] | TGI (UACC-62 melanoma) [µM] | TGI (EKVX NSCLC) [µM] | TGI (HL-60(TB) leukemia) [µM] | TGI (RPMI-8226 leukemia) [µM] | TGI (IGROV1 ovarian) [µM] | TGI (NCI-H23 lung) [µM] | TGI (HOP-62 NSCLC) [µM] | TGI (K-562 leukemia) [µM] | TGI (SNB-19 CNS) [µM] | TGI (SF-268 CNS) [µM] | TGI (UACC-257 melanoma) [µM] | TGI (SK-MEL-5 melanoma) [µM]
1 | Cc1cc2n([O-])cccc-2[n+](=O)c1 | > 100 | > 100 | > 100 | > 100 | > 100 | > 100 | > 100 | > 100 | > 100 | > 100 | > 100 | > 100 | > 100 | > 100 | > 100 | > 100 | > 100 | > 100 | > 100 | > 100
2 | Nc1c(N=Nc2ccc(-c3ccc(N=Nc4c(O)ccc5cc(S(=O)(=O)O)cc(S(=O)(=O)O)c45)cc3)cc2)c(S(=O)(=O)O)cc2cc(S(=O)(=O)O)c(N=Nc3ccccc3)c(O)c12 | > 100 | – | > 95 | – | > 100 | – | > 100 | > 100 | > 100 | > 100 | > 100 | > 100 | > 100 | > 100 | > 100 | > 100 | > 100 | > 100 | > 100 | > 100
3 | C=C[C@@](C)(/C=C/c1ccc(O)cc1)CCC=C(C)C | 33.5 | 32.6 | 35.4 | 32.3 | 34.4 | 35.3 | 33.1 | 32 | – | – | 29.7 | 32.3 | 30.5 | 30.4 | 33.8 | 29.9 | 34.7 | – | 31.9 | 30.7
4 | COc1cc2cc(C(=O)N3CC(CCl)c4c3cc([N+](C)(C)Cc3ccc([N+](=O)[O-])n3C)c3ccccc43)[nH]c2c(OC)c1OC (stereo not drawn) | > 100 | > 19.9 | – | 14.3 | > 38.8 | > 48 | 7.36 | 6.26 | 3.14 | 16.4 | 8.16 | 8.31 | 4.23 | 2.49 | > 100 | > 100 | > 100 | > 100 | 5.4 | 4.18
